Source: patent publication US20250099622A1, “COMPOSITIONS AND METHODS FOR EXPRESSING THERAPEUTICS” (priority 2022, published 2025)

System: NIH3T3 cells (cGMP secreted)
Test: EC50 for CNP-Fc constructs, cGMP ELISA of NIH3T3 supernatant
Assay type: cell-based
Settings: NIH3T3, 30 minutes, 1.8 mM IBMX, cGMP secreted by the cells; FIG. 25B
Method: EC50 for CNP-Fc described herein were measured by ELISA. 2.5E+05 NIH3T3 cells/well were plated. […] After 30 minutes, supernatant was collected for cGMP determined via ELISA. FIG. 25A illustrates a standard curve of cGMP.

AMI088: purified fusion protein Fc1-(G4S)4-CNP36 (IgG1 Fc), SEQ ID NO: 133
EC50 values (rank order): CNP-22 ≡Fc4-CNP36>Aflibercept-Fc4-CNP36>Fc1-CNP36>>Fc4-CNP22
